The results in this text go back to publication PMC6264464, “Synthesis and Antifungal Activity of Novel Sulfone Derivatives Containing 1,3,4-Oxadiazole Moieties” (Molecules, 2011).

The test system of series [1] is C. mandshurica. As to the kind of experiment: Mycelial growth rate / poison plate antifungal test. It is filed as cell-based, Cytospora mandshurica. The note with it: Cytospora; for inhibition at 50 µg/mL: 120 h, read-out: Inhibition (%) C. mandshurica; for EC50: read-out: EC50 (µg/mL) C. mandshurica.
Series [2] has as its system F. oxysporum. The description is as above. It is filed as cell-based. The conditions noted are these: Fusarium oxysporum; for inhibition at 50 µg/mL: 120 h, read-out: Inhibition (%) F. oxysporum; for EC50: read-out: EC50 (µg/mL) F. oxysporum.
In series [3] the test system is S. sclerotiorum. As to the kind of experiment: microbe, parasite or virus in culture. Type of series: cell-based. The conditions noted are these: Sclerotinia sclerotiorum, read-out: EC50 (µg/mL) S. sclerotiorum.
Series [4] concerns T. cucumeris. As to the kind of experiment: microbe, parasite or virus in culture. Type of series: cell-based. The note with it: Thanatephorus cucumeris, read-out: EC50 (µg/mL) T. cucumeris.
Series [5] has as its system P. infestans. The series can be described thus: microbe, parasite or virus in culture. It is filed as cell-based. The conditions noted are these: Phytophthora infestans, read-out: EC50 (µg/mL) P. infestans.
For series [6], the system named is B. cinerea. The series can be described thus: microbe, parasite or virus in culture. Type of series: cell-based. The conditions noted are these: Botrytis cinerea, read-out: EC50 (µg/mL) B. cinerea.
For series [7], the system named is R. solani. As to the kind of experiment: microbe, parasite or virus in culture. The conditions noted are these: Rhizoctonia solani, read-out: EC50 (µg/mL) R. solani. It is filed as cell-based.
Series [8] relates to C. gloeosporioides. The series can be described thus: microbe, parasite or virus in culture. The note with it: Colletotrichum gloeosporioides, read-out: EC50 (µg/mL) C. gloeosporioides. Type of series: cell-based.
The mark [9] stands for this setting: at 50 µg/mL, PDA, 27 ± 1 °C, 5 days.

Values after ≈ are worked out from the molar mass of the structure shown. Where two headings read alike, the source gives them in different places.

`CS(=O)(=O)c1nnc(-c2ccccc2C(F)(F)F)o1` [Compound 5a, 2-(Methylsulfonyl)-5-(2-(trifluoromethyl)phenyl)-1,3,4-oxadiazole] gave a melting point of 102 to 104 °C. For the same compound, the inhibition at 50 µg/mL in series [1] (setting [9]) turned out to be 68.3 ± 9.3%. In [2] (setting [9]), the inhibition at 50 µg/mL is 71.1 ± 7.7%.

`CS(=O)(=O)c1nnc(-c2ccc(F)c(F)c2F)o1` [Compound 5b, 2-(Methylsulfonyl)-5-(2,3,4-trifluorophenyl)-1,3,4-oxadiazole] displayed a melting point of 114 to 115 °C. Besides, the inhibition at 50 µg/mL in [1] (setting [9]) was determined as 89.7 ± 3.1%. Moreover, the inhibition at 50 µg/mL in series [2] (setting [9]) turned out to be 97.5 ± 3.3%.

Take `CS(=O)(=O)c1nnc(-c2ccncc2)o1` [Compound 5c, 2-(Methylsulfonyl)-5-(pyridin-4-yl)-1,3,4-oxadiazole]: the melting point was 134 to 136 °C. Moreover, the inhibition at 50 µg/mL in series [1] (setting [9]) was 78.2 ± 4.7%. In series [2] (setting [9]), the inhibition at 50 µg/mL turned out to be 72.6 ± 6.4%.

Regarding `CS(=O)(=O)c1nnc(-c2ccccc2F)o1` [Compound 5d, 2-(Methylsulfonyl)-5-(2-fluorophenyl)-1,3,4-oxadiazole], the melting point was in the range of 97 to 99 °C. Besides, the EC50 in [3] was found to be 8.49 ± 3.51 µg/mL (≈ 35 µM). Besides, the EC50 in series [4] was found to be 10 ± 5.64 µg/mL (≈ 41.3 µM). The EC50 in [5] came out at 14.7 ± 3.23 µg/mL (≈ 60.8 µM). In series [1] (setting [9]), the inhibition at 50 µg/mL is 64 ± 1.3%. In addition, the EC50 in series [1] turned out to be 79.9 ± 14.8 µg/mL (≈ 330 µM). Further, the inhibition at 50 µg/mL in series [2] (setting [9]) is 70.1 ± 4.9%. The EC50 in series [2] was determined as 29.1 ± 7.82 µg/mL (≈ 120 µM). Further, the EC50 in [6] was found to be 5.21 ± 2.05 µg/mL (≈ 21.5 µM). Besides, the EC50 in [7] came to 6.43 ± 1.34 µg/mL (≈ 26.5 µM). Also, in [8], the EC50 is 20.2 ± 6.65 µg/mL (≈ 83.5 µM).

`CS(=O)(=O)c1nnc(-c2c(F)cccc2F)o1` [Compound 5e, 2-(Methylsulfonyl)-5-(2,6-difluorophenyl)-1,3,4-oxadiazole] came in with a melting point of 131 to 132 °C. Also, the EC50 in series [3] worked out at 15 ± 6.83 µg/mL (≈ 57.5 µM). In series [4], the EC50 turned out to be 23.4 ± 4.76 µg/mL (≈ 89.7 µM). The EC50 in series [5] amounted to 59.5 ± 16.8 µg/mL (≈ 229 µM). In series [1] (setting [9]), the inhibition at 50 µg/mL is over 90%. In addition, the EC50 in series [1] was found to be 38.3 ± 3.21 µg/mL (≈ 147 µM). Moreover, the inhibition at 50 µg/mL in [2] (setting [9]) was 98.8 ± 8%. The EC50 in series [2] was 65.8 ± 7.04 µg/mL (≈ 253 µM). The EC50 in [6] is 8.25 ± 0.85 µg/mL (≈ 31.7 µM). In addition, the EC50 in series [7] stood at 21.2 ± 4.12 µg/mL (≈ 81.6 µM). The EC50 in series [8] came to 26.1 ± 7.32 µg/mL (≈ 100 µM).

Take `CS(=O)(=O)c1nnc(-c2c(Cl)cccc2Cl)o1` [Compound 5f, 2-(Methylsulfonyl)-5-(2,6-dichlorophenyl)-1,3,4-oxadiazole]: the melting point fell in the range of 126 to 128 °C. For the same compound, in [3], the EC50 amounted to 17.2 ± 4.72 µg/mL (≈ 58.7 µM). Further, the EC50 in series [4] was 25.2 ± 2.34 µg/mL (≈ 86.1 µM). Moreover, the EC50 in [5] was determined as 42.9 ± 7.38 µg/mL (≈ 146 µM). In addition, the inhibition at 50 µg/mL in series [1] (setting [9]) is over 90%. In addition, the EC50 in series [1] stood at 98.2 ± 8.35 µg/mL (≈ 335 µM). In series [2] (setting [9]), the inhibition at 50 µg/mL amounted to 94 ± 4.1%. For the same compound, the EC50 in series [2] is 85.4 ± 17.9 µg/mL (≈ 291 µM). Further, in [6], the EC50 was 8.03 ± 0.86 µg/mL (≈ 27.4 µM). Further, the EC50 in [7] was determined as 16.2 ± 9.76 µg/mL (≈ 55.1 µM). In addition, the EC50 in series [8] came to 33.1 ± 8.29 µg/mL (≈ 113 µM).

Compound `COc1ccccc1-c1nnc(S(C)(=O)=O)o1` [Compound 5g, 2-(Methylsulfonyl)-5-(2-methoxyphenyl)-1,3,4-oxadiazole] returned a melting point of 127 to 129 °C. For the same compound, the inhibition at 50 µg/mL in series [1] (setting [9]) is over 90%. Besides, the inhibition at 50 µg/mL in series [2] (setting [9]) amounted to 89.6 ± 4.5%.

`Cc1ccccc1-c1nnc(S(C)(=O)=O)o1` [Compound 5h, 2-(Methylsulfonyl)-5-(2-methylphenyl)-1,3,4-oxadiazole] came in with a melting point of 117 to 119 °C. Besides, the inhibition at 50 µg/mL in series [1] (setting [9]) was over 90%. For the same compound, the inhibition at 50 µg/mL in [2] (setting [9]) amounted to 74.6 ± 8.5%.

On to `CS(=O)(=O)c1nnc(-c2ccccc2Br)o1` [Compound 5i, 2-(Methylsulfonyl)-5-(2-bromophenyl)-1,3,4-oxadiazole], for which the melting point is 134 to 135 °C. Moreover, in series [3], the EC50 came to 14.8 ± 1.02 µg/mL (≈ 48.8 µM). Moreover, in series [4], the EC50 is 24.8 ± 4.29 µg/mL (≈ 81.7 µM). The EC50 in series [5] was found to be 49.6 ± 9.39 µg/mL (≈ 164 µM). In addition, the inhibition at 50 µg/mL in series [1] (setting [9]) is 79.6 ± 7.1%. The EC50 in series [1] is 44.5 ± 3.56 µg/mL (≈ 147 µM). Besides, the inhibition at 50 µg/mL in series [2] (setting [9]) was 77 ± 6.6%. Also, the EC50 in series [2] is 29.9 ± 1.31 µg/mL (≈ 98.6 µM). Further, the EC50 in [6] turned out to be 21 ± 2.01 µg/mL (≈ 69.3 µM). In [7], the EC50 came to 20 ± 1.28 µg/mL (≈ 66 µM). Moreover, the EC50 in series [8] was determined as 21.9 ± 2.93 µg/mL (≈ 72.4 µM).

`CS(=O)(=O)c1nnc(-c2c(F)cccc2Cl)o1` [Compound 5j, 2-(Methylsulfonyl)-5-(2-chloro-6-fluorophenyl)-1,3,4-oxadiazole]: the melting point lay in the range of 121 to 123 °C. Further, the inhibition at 50 µg/mL in series [1] (setting [9]) was 64 ± 2.6%. In series [2] (setting [9]), the inhibition at 50 µg/mL amounted to 67.1 ± 4.8%.

Regarding `Cc1cc(O)no1` [Hymexazol, reference compound], the EC50 in [3] was 7.76 ± 2.98 µg/mL (≈ 78.3 µM); in series [4], 32.2 ± 5.82 µg/mL (≈ 325 µM); in series [5], 26.5 ± 1.42 µg/mL (≈ 267 µM); in series [1] it was 39.3 ± 2.79 µg/mL (≈ 396 µM); in [2], 27.9 ± 1.02 µg/mL (≈ 282 µM); in series [6] it was 25.2 ± 6.12 µg/mL (≈ 255 µM). The EC50 in [7] was determined as 38.6 ± 0.45 µg/mL (≈ 390 µM); in [8], 37.6 ± 3.16 µg/mL (≈ 379 µM). Besides, the inhibition at 50 µg/mL in series [1] was determined as 57.3 ± 0.3%; in series [2] it was 58.4 ± 0.8%.
